Target: T1, human recombinant OX2 (hOX2) receptor (Homo sapiens, UniProt O43614)
T1 construct: host or cells: CHO cells
T1 sequence (O43614 1-444): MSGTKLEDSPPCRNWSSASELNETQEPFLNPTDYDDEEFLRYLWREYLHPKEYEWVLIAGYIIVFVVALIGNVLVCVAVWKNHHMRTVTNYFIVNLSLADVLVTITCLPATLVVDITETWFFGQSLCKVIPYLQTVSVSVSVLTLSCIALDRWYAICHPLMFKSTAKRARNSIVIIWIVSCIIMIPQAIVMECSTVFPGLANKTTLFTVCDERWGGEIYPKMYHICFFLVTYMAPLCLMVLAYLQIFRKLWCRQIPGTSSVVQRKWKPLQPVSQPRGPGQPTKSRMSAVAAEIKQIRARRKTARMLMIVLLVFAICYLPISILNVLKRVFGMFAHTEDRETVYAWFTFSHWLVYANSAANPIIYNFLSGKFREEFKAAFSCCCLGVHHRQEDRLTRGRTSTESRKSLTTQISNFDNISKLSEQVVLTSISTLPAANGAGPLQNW
Assay: IP-1 accumulation assay (IP-One HTRF) in hOX2-CHO cells
Assay type: cell-based
Details: 60 min at 37° C., mean of at least two independent experiments, read-out: EC50_OX2R Category
Protocol: Example 94: IP-1 Accumulation Assay
The accumulation of Inositol-1 Monophosphate (IP-1) was measured using IP-One HTRF® Terbium cryptate based assay (Cisbio) in human recombinant OX1 (hOX1) and at OX2 (hOX2) receptors expressed in CHO cells (DiscoverX) according to the manufacturer's instructions for cells tested in suspension.
hOX1-CHO and hOX2-CHO cells were seeded into white 384-well plates at a density of 20,000 cells/well in Hank's Balanced Salt Solution (HBSS) containing 20 mM HEPES pH 7.4, 50 mM, LiCl and 0.1% and Bovine Serum Albumin (BSA).
Compounds of the present disclosure were tested in a 11 points concentration response curve (CRC) serially diluted in neat DMSO at 200 fold concentrations and added by Echo acoustic liquid handling (Labcyte) to the cells (0.5% DMSO final in the assay). After 60 min of incubation at 37° C. detection reagents, IP1-d2 tracer and anti-IP1-cryptate were diluted in lysis buffer according to the manufacturer's descriptions and added to the cells.
Following 60 mi incubation at room temperature, time-resolved fluorescence (HTRF) was measured at 615 nm and 665 nm by Envision Multilabel reader (Perkin Elmer) and the HTRF ratio (A665/A615×10^4) was calculated.
The IP-1 accumulation response was expressed as percentage of the maximal OX-A response.
Curve fitting and EC50 estimations were carried out using a four-parameter logistic model using XLfit Software. Mean data of EC50 are calculated from at least two independent experiments performed in duplicates.

| EC50 | Structure (SMILES) |
| --- | --- |
| 100 to 1000 nM | O=C1COCC2(CCN(C(=O)[C@H]3C[C@@H](F)C3)C2Cc2cccc(-c3cc(F)cc(F)c3)c2F)N1 (mixture of isomers) [Example 71, rel-(1S,5S)-2-[(1s,3s)-3-fluorocyclobutanecarbonyl]-1-({2,3′,5′-trifluoro-[1,1′-biphenyl]-3-yl}methyl)-9-oxa-2,6-diazaspiro[4.5]decan-7-one] |
| > 10000 nM | COC(=O)N1CCCC2(CCC(=O)N2)C1Cc1cccc(-c2ccccc2)c1 (mixture of isomers) [Example 28, Methyl 6-({[1,1′-biphenyl]-3-yl}methyl)-2-oxo-1,7-diazaspiro[4.5]decane-7-carboxylate] |
| < 100 nM | O=C1N[C@]2(CCCN(C(=O)[C@H]3C[C@@H](F)C3)[C@H]2CO[C@H]2CC[C@@H](c3ccccc3)CC2)CCO1 (single isomer, unassigned) [Example 66] |
| 100 to 1000 nM | O=C1N[C@]2(CCO1)[C@H](Cc1cccc(-c3cc(F)cc(F)c3)c1F)N(C(=O)[C@H]1C[C@@H](F)C1)CC2(F)F (relative stereo) [Example 79, rel-(1S,5R)-4,4-difluoro-2-[(CIS)-3-fluorocyclobutanecarbonyl]-1-({2,3′,5′-trifluoro-[1,1′-biphenyl]-3-yl}methyl)-8-oxa-2,6-diazaspiro[4.5]decan-7-one] |
| 100 to 1000 nM | CCNC(=O)N1CCC[C@@]2(CCOC(=O)N2)[C@@H]1Cc1cccc(-c2ccccc2)c1 [Example 27, (6R,7S)-7-({[1,1′-biphenyl]-3-yl}methyl)-N-ethyl-2-oxo-3-oxa-1,8-diazaspiro[5.5]undecane-8-carboxamide] |
| 100 to 1000 nM | COc1cccnc1N1[C@H](C)C[C@@]2(COCC(=O)N2)[C@@H]1CO[C@H]1CC[C@@H](c2ccccc2)CC1 [Example 63, (1R,3R,5S)-2-(3-methoxypyridin-2-yl)-3-methyl-1-({[(CIS)-4-phenylcyclohexyl]oxy}methyl)-9-oxa-2,6-diazaspiro[4.5]decan-7-one] |
| 100 to 1000 nM | O=C1COC[C@@]2(CCCN(C(=O)C3CC3)[C@H]2CO[C@H]2CC[C@@H](c3ccccc3)CC2)N1 (single isomer, unassigned) [Example 9] |
| 100 to 1000 nM | CCNC(=O)N1CCCC2(CCCS(=O)(=O)N2)C1CO[C@H]1CC[C@@H](c2ccccc2)CC1 (mixture of isomers) [Example 37, rel-(6R,7R)-N-ethyl-2,2-dioxo-7-({[(CIS)-4-phenylcyclohexyl]oxy}methyl)-2λ^6-thia-1,8-diazaspiro[5.5] undecane-8-carboxamide] |
| > 10000 nM | O=C1COC[C@]2(CCCN(C(=O)C3CC3)[C@@H]2CO[C@H]2CC[C@@H](c3ccccc3)CC2)N1 (single isomer, unassigned) [Example 8] |
| 100 to 1000 nM | CCNC(=O)N1CCCC2(COCS(=O)(=O)N2)C1CO[C@H]1CC[C@@H](c2ccccc2)CC1 (mixture of isomers) [Example 36, rel-(6S,7R)-N-ethyl-2,2-dioxo-7-({[(CIS)-4-phenylcyclohexyl]oxy}methyl)-4-oxa-2λ^6-thia-1,8-diazaspiro[5.5] undecane-8-carboxamide] |
| 1000 to 10000 nM | O=C1N[C@]2(CCN(C(=O)OCC(F)F)[C@H]2Cc2cccc(-c3cc(F)cc(F)c3)c2F)COC1F (single isomer, unassigned) [Example 74] |
| 100 to 1000 nM | C[C@@H]1C[C@@]2(COCC(=O)N2)[C@H](Cc2cccc(-c3cc(F)cc(F)c3)c2F)N1C(=O)CC(F)(F)F [Example 84, (1S,3R,5S)-3-methyl-1-({2,3′,5′-trifluoro-[1,1′-biphenyl]-3-yl}methyl)-2-(3,3,3-trifluoropropanoyl)-9-oxa-2,6-diazaspiro[4.5]decan-7-one] |
| 1000 to 10000 nM | COCC(=O)N1[C@H](C)C[C@@]2(COCC(=O)N2)[C@@H]1Cc1cccc(-c2cc(F)cc(F)c2)c1F [Example 88, (1S,3R,5S)-2-(2-methoxyacetyl)-3-methyl-1-({2,3′,5′-trifluoro-[1,1′-biphenyl]-3-yl}methyl)-9-oxa-2,6-diazaspiro[4.5]decan-7-one] |
| > 10000 nM | COC(=O)N1CCC[C@@]2(CCOC(=O)N2)[C@@H]1Cc1cccc(-c2ccccc2)c1 (single isomer, unassigned) [Example 21] |

Source: patent US20240254143A1, “OREXIN RECEPTOR AGONISTS AND USES THEREOF” (JAZZ PHARMACEUTICALS IRELAND LIMITED, priority 2021, published 2024)
